{"source": "patent US7071211B2", "about": "“Small organic molecules that increase the activity of gelatinase a in ocular cells” (Bausch & Lomb Inc., priority 2002, dated 2006)", "key": {"[1]": {"system": "MT-MMP", "experiment": "Thiopeptolide assay of cell-associated gelatinase activity ascribed to MT-MMP in TM cells", "assay_type": "cell-based, Rhesus monkey", "details": "for Percent Activation Over control value: 48 hours incubation, OD 410 nm vs CACM control", "protocol": "Two days before molecule testing, the medium is replace by a defined, serum-free medium such as Minimum Essential Medium (MEM) containing defined supplements as described by Schachtschabel and Binninger, Z.f.Gerontol. […] Unless specifically noted, all molecules tested were prepared as stock solutions in dimethyl sulfoxide (DMSO) with a final concentration of 10 mg/ml. The stocks were stored in a dessicator at −20 degrees Celsius. In testing the molecules, the molecules were diluted to final concentrations of 0.3 ug/ml and 15 ug/ml in a simplified culture medium based on Ames' medium, called Concanavalin A (Con A) conditioning medium (CACM). The monkey TM cells were incubated with the test molecules for 48 hours. Control medium of CACM plus DMSO and a positive control with 5 ug/ml Con A plus DMSO were run in parallel. […] Next 100 uL of a doubly (2×) concentrated mixture of the thiopeptolide substrate (from a forty times (40×) concentrated DMSO stock, to give 1 mmol/L final concentration) freshly combined with the thiol reagent (5,5′dithiobis(2-nitrobenzoic acid (DTNB) from a twenty times (20×) concentrated DMSO stock to give 1 mmol/L) were added to each well and were incubated at 37 degrees Celsius for two hours with gentle agitation.\nAt the end of the incubation period, by means of a spectrophoto-metric plate reader, the optical density (OD) at 410 nm was determined for each well after automatic subtraction of a blank value for a well containing reaction mixture but without cells. The average OD at the two-hour end point for each test molecule at all concentrations in triplicate was calculated. This calculation was interpreted to be a measure of cell-associated MT-MMP level, equivalently defined as either its activity (a catalytic property of the enzyme) or expression (number of functional molecules). The percent difference in OD for each sample compared to the CACM control reflects the effectiveness of each test molecule or combination of molecules in eliciting increases in MT-MMP levels. As an alternate to the end point OD reading, one may use the mean rate of appearance of the reaction product (mean V), calculated from the best linear fit of the data to absorbance vs. time.\nTM cells were exposed to molecules and combinations of molecules by means of simultaneous addition, from separate stocks, to incubation medium."}, "[2]": {"system": "MT-MMP", "experiment": "Co-activation thiopeptolide assay (test compound with Con A or a second test compound) in TM cells", "assay_type": "cell-based, Rhesus monkey", "excerpt": "Concanavalin A (Con A) binds to mannose groups on cell membrane gycoproteins. Because of its tetravalent nature, Con A binding leads to oligomerization of these “receptors,” possibly in the form of heterogeneous aggregates. Con A stimulation elicits increased expression of MT-MMP with concomitant ability to activate proGelA. The response, as measured by the magnitude of zymographic bands and by thiopeptolide assay, is dose-dependent. Thus the effects of co-activation using a submaximal dose of Con A plus treatment with a small molecule that may or may not be active by itself, are measured in the subject activation assay.\nFor the coactivation assays, following the preliminary steps set forth above preceding incubation with test compounds in Example 1, cells subsequently undergo one of the following protocols. • Protocol 1. Cells are incubated with a particular test compound for twenty-four hours. This incubation period is followed by a second twenty-four hour incubation period, in which the culture medium containing the first test compound is completely replaced by medium containing 5 ug/ml Con A. • Protocol 2. Cells are incubated with a particular first test compound for twenty-four hours, followed by a second forty-eight hour incubation in which the medium containing the first test compound is completely replaced by medium containing either Con A, as described above, or a second test compound. • Protocol 3. Cells are incubated with a combination of a test compound together with 5 ug/ml Con A for forty-eight hours.\nTwo controls, with or without 5 ug/ml Con A are run in parallel as described in Example 1. After incubation with these agents, cells are processed in equivalently to those in Example 1. Instead of comparison of the OD values with a CACM control, the results are compared with samples using Con A alone, or with a single test compound as described in Protocol 2 above, as set forth in Table 5 below."}, "[3]": {"system": "MT1-MMP", "details": "human cervical fibroblasts; Ito et al. 1998; cited from earlier work"}, "[4]": {"system": "MT1-MMP", "details": "Alexander and Acott 1999; cited from earlier work"}}, "data": [{"compound": "COc1ccc(/C(C#N)=N/OC(=O)N2CCCCC2)cc1OC", "note": "[Molecule 1]", "values": [{"measurement": "Percent Activation Over control value", "setting": "[1]; Conc. 0.9 umol/L", "value": 48.1, "unit": "%"}, {"measurement": "Percent Activation Over control value", "setting": "[1]; Conc. 47.31 umol/L", "value": 260.4, "unit": "%"}]}, {"compound": "N#C/C(=N\\OC(=O)N1CCCCC1)c1c(F)cccc1F", "note": "[Molecule 2]", "values": [{"measurement": "Percent Activation Over control value", "setting": "[1]; Conc. 1.0 umol/L", "value": 33.8, "unit": "%"}, {"measurement": "Percent Activation Over control value", "setting": "[1]; Conc. 51.1.1 umol/L", "value": 420.5, "unit": "%"}]}, {"compound": "CC(C)N(CC(O)COc1cccc2ccccc12)C(N)=O", "note": "(stereo not shown) [Molecule 4]", "values": [{"measurement": "Percent Activation Over control value", "setting": "[1]; Conc. 1.0 umol/L", "value": 5.9, "unit": "%"}, {"measurement": "Percent Activation Over control value", "setting": "[1]; Conc. 49.6 umol/L", "value": 73.4, "unit": "%"}]}, {"compound": "CC(C)N(CCCOc1cccc2ccccc12)C(N)=O", "note": "[Molecule 6]", "values": [{"measurement": "Percent Activation Over control value", "setting": "[1]; Conc. 1.0 umol/L", "value": 2.2, "unit": "%"}, {"measurement": "Percent Activation Over control value", "setting": "[1]; Conc. 52.4 umol/L", "value": 207.9, "unit": "%"}, {"measurement": "Activity (% increase over Con A above, or as otherwise noted)", "setting": "[2]; Protocol 1 (24 h test compound, then 24 h 5 ug/ml Con A), Conc. 104.8 umol/L with Con A", "value": 183.9, "unit": "%"}, {"measurement": "Activity (% increase over Con A above, or as otherwise noted)", "setting": "[2]; Protocol 2 (24 h test compound, then 48 h Con A), Conc. 34.9 umol/L with Con A", "value": 49.0, "unit": "%"}, {"measurement": "Activity (% increase over Con A above, or as otherwise noted)", "setting": "[2]; Protocol 2 (24 h test compound, then 48 h Con A), Conc. 100.0 umol/L with Con A", "value": 70.9, "unit": "%"}]}, {"compound": "CNC(=O)N(CCOc1cccc(Cl)c1Cl)C(C)C", "note": "[Molecule 7]", "values": [{"measurement": "Percent Activation Over control value", "setting": "[1]; Conc. 1.0 umol/L", "value": "(−7.9) Percent"}, {"measurement": "Percent Activation Over control value", "setting": "[1]; Conc. 49.2 umol/L", "value": 274.0, "unit": "%"}, {"measurement": "Activity (% increase over Con A above, or as otherwise noted)", "setting": "[2]; Protocol 2 (24 h test compound, then 48 h Con A), Conc. 49.1 umol/L with Con A", "value": 59.8, "unit": "%"}]}, {"compound": "Cc1cccc(Cl)c1/C=N/NC(=N)N", "note": "[Molecule 8]", "values": [{"measurement": "Percent Activation Over control value", "setting": "[1]; Conc. 2.6 umol/L", "value": 2.9, "unit": "%"}, {"measurement": "Percent Activation Over control value", "setting": "[1]; Conc. 12.98 umol/L", "value": 12.7, "unit": "%"}, {"measurement": "Percent Activation Over control value", "setting": "[1]; Conc. 64.91 umol/L", "value": 54.3, "unit": "%"}, {"measurement": "Percent Activation Over control value", "setting": "[1]; Conc. 129.81 umol/L", "value": 106.8, "unit": "%"}]}, {"compound": "CC/C(=N\\NC(=N)N)c1ccccc1", "note": "[Molecule 9]", "values": [{"measurement": "Percent Activation Over control value", "setting": "[1]; Conc. 1.18 umol/L", "value": 21.4, "unit": "%"}, {"measurement": "Percent Activation Over control value", "setting": "[1]; Conc. 118.44 umol/L", "value": 82.4, "unit": "%"}]}, {"compound": "CSC(=N)N/N=C/c1c(Cl)cccc1Cl", "note": "[Molecule 11]", "values": [{"measurement": "Percent Activation Over control value", "setting": "[1]; Conc. 1.14 umol/L", "value": "(−20.9) Percent"}, {"measurement": "Percent Activation Over control value", "setting": "[1]; Conc. 57.22 umol/L", "value": 88.1, "unit": "%"}]}, {"compound": "N=C(N)NNC(O)c1c(Cl)cccc1Cl", "note": "(stereo not shown) [Molecule 12]", "values": [{"measurement": "Percent Activation Over control value", "setting": "[1]; Conc. 1.05 umol/L", "value": 3.2, "unit": "%"}, {"measurement": "Percent Activation Over control value", "setting": "[1]; Conc. 52.53 umol/L", "value": 101.6, "unit": "%"}]}, {"compound": "CC(C#N)c1ccc2c(c1)N(C)C1C=CC=CC1S2", "note": "(stereo not shown) [Molecule 13]", "values": [{"measurement": "Percent Activation Over control value", "setting": "[1]; Conc. 1.1 umol/L", "value": 74.6, "unit": "%"}, {"measurement": "Percent Activation Over control value", "setting": "[1]; Conc. 55.9 umol/L", "value": 68.5, "unit": "%"}, {"measurement": "Activity (% increase over Con A above, or as otherwise noted)", "setting": "[2]; Protocol 1 (24 h test compound, then 24 h 5 ug/ml Con A), Conc. 1.1 umol/L with Con A", "value": 18.1, "unit": "%"}, {"measurement": "Activity (% increase over Con A above, or as otherwise noted)", "setting": "[2]; Protocol 1 (24 h test compound, then 24 h 5 ug/ml Con A), Conc. 55.9 umol/L with Con A", "value": 109.5, "unit": "%"}]}, {"compound": "NC(=O)N1c2ccccc2C=Cc2ccccc21", "note": "[Molecule 14]", "values": [{"measurement": "Percent Activation Over control value", "setting": "[1]; Conc. 1.27 umol/L", "value": 7.7, "unit": "%"}, {"measurement": "Percent Activation Over control value", "setting": "[1]; Conc. 63.49 umol/L", "value": 115.6, "unit": "%"}]}, {"compound": "NCCCCCCNS(=O)(=O)c1cccc2c(Cl)cccc12", "note": "[Molecule W-7]", "values": [{"measurement": "MT1-MMP-induced activation of Gelatinase A (GelA)", "setting": "[3]", "value": "not particularly pronounced"}]}, {"compound": "CCCCCCCCCCCCCC(=O)O[C@@H]1[C@@H](C)[C@@]2(O)[C@@H](C=C(CO)C[C@]3(O)C(=O)C(C)=C[C@@H]23)[C@@H]2C(C)(C)[C@]12OC(C)=O", "note": "[phorbol ester, phorbol 12-myristate 13-acetate]", "values": [{"measurement": "Expression of MT1-MMP", "setting": "[4]", "value": "increased expression of MT1-MMP"}]}, {"compound": "CN1CCN(CCCN2c3ccccc3Sc3ccc(C(F)(F)F)cc32)CC1", "note": "[trifluoperazine]", "values": [{"measurement": "MT1-MMP-induced activation of Gelatinase A (GelA)", "setting": "[3]", "value": "resulted in MT1-MMP-induced activation of Gelatinase A"}]}, {"compound": "Concanavalin A [Con A, reference compound]", "values": [{"measurement": "Increased expression of MT-MMP on Con A stimulation (response)", "setting": "[1]; measured by magnitude of zymographic bands and by thiopeptolide assay", "value": "dose-dependent"}]}]}
